Measurements reported in US7705002B2, “Biaryls useful as modulators of ion channels” (Vertex Pharmaceuticals Incorporated, priority 2005, dated 2010).
Like-named read-outs stand apart in the source and are kept apart here.

Key:
NaV1.8 [1] = biological target: T1, NaV1.8 (Homo sapiens, UniProt Q9Y5Y9); assay: Activity against NaV 1.8 channel (Table 4); type: cell-based
Method: Compounds of the invention are useful as antagonists of voltage-gated sodium ion channels. Antagonist properties of test compounds were assessed as follows. Cells expressing the NaV of interest were placed into microtiter plates. After an incubation period, the cells were stained with fluorescent dyes sensitive to the transmembrane potential. The test compounds were added to the microtiter plate. The cells were stimulated with either a chemical or electrical means to evoke a NaV dependent membrane potential change from unblocked channels, which was detected and measured with trans-membrane potential-sensitive dyes. Antagonists were detected as a decreased membrane potential response to the stimulus. The optical membrane potential assay utilized voltage-sensitive FRET sensors described by Gonzalez and Tsien (See, Gonzalez, J. E. and R. Y. Tsien (1995) “Voltage sensing by fluorescence resonance energy transfer in single cells” Biophys J 69(4): 1272-80, and Gonzalez, J. E. and R. Y. Tsien (1997) “Improved indicators of cell membrane potential that use fluorescence resonance energy transfer” Chem Biol 4(4): 269-77) in combination with instrumentation for measuring fluorescence changes such as the Voltage/Ion Probe Reader (VIPR®) (See, Gonzalez, J. E., K. Oades, et al. (1999) “Cell-based assays and instrumentation for screening ion-channel targets” Drug Discov Today 4(9): 431-439).
24 hours before the assay on VIPR, CHO cells endogenously expressing a NaV1.2 type voltage-gated NaV are seeded in 96-well poly-lysine coated plates at 60,000 cells per well. […] The cells are then incubated for 20-30 minutes. • 7) Once the incubation is complete, the cells are ready to be assayed on VIPR® with a sodium addback protocol. […]
Control responses are obtained by performing assays in the presence of a compound with the desired properties (positive control), such as tetracaine, and in the absence of pharmacological agents (negative control). Responses to the negative (N) and positive (P) controls are calculated as above. […]

[2] = in vivo; cited from earlier work
NaV1.8 [3] = biological target: T1, NaV1.8; conditions: read-out: TTX IC50; cited from earlier work

T1 sequence (Q9Y5Y9 whole entry, looked up): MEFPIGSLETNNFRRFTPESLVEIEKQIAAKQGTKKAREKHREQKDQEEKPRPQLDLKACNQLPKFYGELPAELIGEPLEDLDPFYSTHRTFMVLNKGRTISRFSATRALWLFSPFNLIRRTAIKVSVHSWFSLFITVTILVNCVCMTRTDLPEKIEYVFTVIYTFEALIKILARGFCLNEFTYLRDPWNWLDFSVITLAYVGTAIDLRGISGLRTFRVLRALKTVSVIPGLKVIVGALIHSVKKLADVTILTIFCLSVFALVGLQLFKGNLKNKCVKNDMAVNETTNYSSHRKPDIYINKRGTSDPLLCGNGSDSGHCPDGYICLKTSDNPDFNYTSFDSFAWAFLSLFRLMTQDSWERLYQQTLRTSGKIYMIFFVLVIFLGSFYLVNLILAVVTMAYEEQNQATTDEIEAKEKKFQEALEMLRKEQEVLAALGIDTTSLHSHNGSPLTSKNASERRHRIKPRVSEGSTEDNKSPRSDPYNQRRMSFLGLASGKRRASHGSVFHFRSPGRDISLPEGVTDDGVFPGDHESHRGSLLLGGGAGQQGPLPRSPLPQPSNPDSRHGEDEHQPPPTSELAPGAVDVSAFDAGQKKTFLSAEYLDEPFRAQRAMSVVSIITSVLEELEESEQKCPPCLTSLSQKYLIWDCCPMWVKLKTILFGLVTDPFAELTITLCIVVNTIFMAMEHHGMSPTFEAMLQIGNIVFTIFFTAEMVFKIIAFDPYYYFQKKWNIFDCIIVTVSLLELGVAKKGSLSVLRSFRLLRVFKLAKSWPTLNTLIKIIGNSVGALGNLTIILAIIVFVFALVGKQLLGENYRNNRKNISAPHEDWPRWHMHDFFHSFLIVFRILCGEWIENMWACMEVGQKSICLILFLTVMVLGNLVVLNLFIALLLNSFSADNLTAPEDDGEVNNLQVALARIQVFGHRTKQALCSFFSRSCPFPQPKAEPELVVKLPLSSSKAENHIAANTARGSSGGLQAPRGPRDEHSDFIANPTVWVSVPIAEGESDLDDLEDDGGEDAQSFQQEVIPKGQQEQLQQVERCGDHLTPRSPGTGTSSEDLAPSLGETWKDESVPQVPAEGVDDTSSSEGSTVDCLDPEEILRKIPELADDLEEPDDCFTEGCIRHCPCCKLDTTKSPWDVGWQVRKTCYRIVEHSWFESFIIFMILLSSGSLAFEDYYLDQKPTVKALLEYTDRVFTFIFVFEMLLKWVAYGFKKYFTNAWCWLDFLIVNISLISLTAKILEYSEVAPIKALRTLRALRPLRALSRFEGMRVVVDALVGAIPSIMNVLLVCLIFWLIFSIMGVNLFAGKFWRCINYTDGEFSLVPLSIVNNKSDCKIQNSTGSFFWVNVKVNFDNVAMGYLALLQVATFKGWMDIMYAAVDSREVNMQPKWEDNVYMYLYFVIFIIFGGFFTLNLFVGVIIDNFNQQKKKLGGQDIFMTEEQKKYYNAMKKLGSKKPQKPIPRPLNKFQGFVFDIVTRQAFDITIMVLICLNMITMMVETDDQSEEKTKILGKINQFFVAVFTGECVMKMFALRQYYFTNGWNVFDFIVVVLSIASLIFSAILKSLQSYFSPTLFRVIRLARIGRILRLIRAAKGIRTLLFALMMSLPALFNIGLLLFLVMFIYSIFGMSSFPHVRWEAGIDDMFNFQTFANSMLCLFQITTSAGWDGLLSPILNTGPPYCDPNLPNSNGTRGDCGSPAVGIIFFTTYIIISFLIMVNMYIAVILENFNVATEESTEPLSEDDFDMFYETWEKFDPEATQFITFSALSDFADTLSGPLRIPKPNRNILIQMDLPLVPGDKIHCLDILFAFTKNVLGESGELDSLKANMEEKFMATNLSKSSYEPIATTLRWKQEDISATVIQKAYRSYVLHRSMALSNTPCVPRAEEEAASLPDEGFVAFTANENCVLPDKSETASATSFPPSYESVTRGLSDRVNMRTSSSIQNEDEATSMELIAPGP

SMILES: CC(C)CC(O)C(=O)N1CCN(c2cccc(-c3ccccc3O)c2)CC1 (centres unmarked) [Compound 1, 2-hydroxy-1-[4-[3-(2-hydroxyphenyl)phenyl]piperazin-1-yl]-4-methyl-pentan-1-one]
- IC50 (NaV1.8 [1]): > 15 µM

SMILES: CC(C)C[C@@H](O)C(=O)N1CCN(c2cccc(-c3ccccc3C(F)F)c2)CC1 [Compound 2, 1-[4-[3-[2-(difluoromethyl)phenyl]phenyl]piperazin-1-yl]-2-hydroxy-4-methyl-pentan-1-one]
- IC50 (NaV1.8 [1]): < 10 µM

SMILES: CC(C)COC(=O)N1CCN(c2cccc(-c3ccccc3O)c2)CC1 [Compound 3, 4-[3-(2-hydroxyphenyl)phenyl]piperazine-1-carboxylic acid isobutyl ester]
- IC50 (NaV1.8 [1]): > 15 µM

SMILES: NCC1(CC(=O)O)CCCCC1 [Gabapentin]
- share of patients in which it works [2]: 60%

SMILES: NC1=N[C@H](O)[C@H]2[C@H]3O[C@]4(O)O[C@@H]([C@@H](O)[C@@]2(N1)[C@@H]4O)[C@]3(O)CO [TTX, tetrodotoxin]
- IC50 (NaV1.8 [3]): > 50 µM
